Source: ChEMBL document CHEMBL3885861, “Open TG-GATES”

Species on record: Rattus norvegicus
Test: Open TG-GATES - Regimen: Single
Format: toxicity, organism-based, Sprague-Dawley
Parameters: regimen Single, gender Male, age 6 weeks
Details: in vivo, po, 300 mg/kg, route gavage, dose level Low; for APTT / Bas / Eos / Fbg / Hb / Ht / Lym / MCH / MCHC / MCV / Mono / Neu / PT / Plat / RBC / Ret / WBC: tissue Blood; for KIDNEY_L / KIDNEY_R / KIDNEY_TOTAL: tissue Kidney; for LIVER: tissue Liver; for A/G / ALP / ALT / AST / BUN / CRE / Ca / Cl / DBIL / GLC / IP / K / LDH / Na / PL / RALB / TBIL / TC / TG / TP / gamma-GTP: tissue Plasma

With `COc1ccc(O)c(C(C)(C)C)c1.COc1ccc(O)cc1C(C)(C)C` [BUTYLATED HYDROXYANISOLE] the TERMINAL_BW (3 h) was 204.6 g, the APTT (3 h) was 16.4 s and the Bas (3 h) was 0.2%. The Eos (3 h) was 0.6%, the Fbg (3 h) was 281.2 mg/dL and the Hb (3 h) was 13.8 g/dL. For the same compound, the Ht (3 h) was 39.9%, the Lym (3 h) was 75% and the MCH (3 h) was 21.7 pg. For the same compound, the MCHC (3 h) was 34.5%, the MCV (3 h) was 63.1 fL and the Mono (3 h) was 2.5%. It also gave a Neu (3 h) of 20.7%, a PT (3 h) of 12 s and a Plat (3 h) of 133.9 x10_4/uL. The RBC (3 h) was 633.4 x10_4/ul, the Ret (3 h) was 8.1% and the WBC (3 h) was 97.5 x10_2/uL. It also gave a KIDNEY_L (3 h) of 0.9 g, a KIDNEY_R (3 h) of 0.9 g and a KIDNEY_TOTAL (3 h) of 1.8 g. It also gave an LIVER (3 h) of 8.5 g, an A/G (3 h) of 0.8 and an ALP (3 h) of 1752.8 IU/L. For the same compound, the ALT (3 h) was 41.8 IU/L, the AST (3 h) was 75.4 IU/L and the BUN (3 h) was 10.2 mg/dL. For the same compound, the CRE (3 h) was 0.2 mg/dL, the Ca (3 h) was 11.3 mg/dL and the Cl (3 h) was 107.8 meq/L. It also gave a DBIL (3 h) of 0.052 mg/dL, a GLC (3 h) of 173.2 mg/dL and an IP (3 h) of 9.1 mg/dL. The K (3 h) was 3.9 meq/L, the LDH (3 h) was 75.6 IU/L and the Na (3 h) was 141.8 meq/L. The PL (3 h) was 154.4 mg/dL, the RALB (3 h) was 2.7 g/dL and the TBIL (3 h) was 0.082 mg/dL. The TC (3 h) was 80.8 mg/dL, the TG (3 h) was 149.4 mg/dL and the TP (3 h) was 5.8 g/dL. It also gave a gamma-GTP (3 h) of 1 IU/L, a TERMINAL_BW (6 h) of 202.1 g and an APTT (6 h) of 16.2 s. For the same compound, the Bas (6 h) was 0.2%, the Eos (6 h) was 0.7% and the Fbg (6 h) was 257.2 mg/dL. It also gave a Hb (6 h) of 13.3 g/dL, a Ht (6 h) of 39.1% and a Lym (6 h) of 72%. The MCH (6 h) was 21.2 pg, the MCHC (6 h) was 33.9% and the MCV (6 h) was 62.4 fL. The Mono (6 h) was 2.5%, the Neu (6 h) was 23.7% and the PT (6 h) was 12.3 s. It also gave a Plat (6 h) of 131.2 x10_4/uL, an RBC (6 h) of 627.4 x10_4/ul and a Ret (6 h) of 7.7%. It also gave a WBC (6 h) of 91.5 x10_2/uL, a KIDNEY_L (6 h) of 0.9 g and a KIDNEY_R (6 h) of 0.9 g. For the same compound, the KIDNEY_TOTAL (6 h) was 1.8 g, the LIVER (6 h) was 7.9 g and the A/G (6 h) was 0.9. The ALP (6 h) was 1829.2 IU/L, the ALT (6 h) was 38 IU/L and the AST (6 h) was 72.8 IU/L. The BUN (6 h) was 9.4 mg/dL, the CRE (6 h) was 0.2 mg/dL and the Ca (6 h) was 11.1 mg/dL. It also gave a Cl (6 h) of 107.8 meq/L, a DBIL (6 h) of 0.03 mg/dL and a GLC (6 h) of 172.4 mg/dL. The IP (6 h) was 10.3 mg/dL, the K (6 h) was 4.2 meq/L and the LDH (6 h) was 60.2 IU/L. The Na (6 h) was 143.2 meq/L, the PL (6 h) was 134.4 mg/dL and the RALB (6 h) was 2.6 g/dL. For the same compound, the TBIL (6 h) was 0.074 mg/dL, the TC (6 h) was 75 mg/dL and the TG (6 h) was 65.8 mg/dL. For the same compound, the TP (6 h) was 5.7 g/dL, the gamma-GTP (6 h) was 1.4 IU/L and the TERMINAL_BW (9 h) was 199.4 g. It also gave an APTT (9 h) of 16.9 s, a Bas (9 h) of 0.2% and an Eos (9 h) of 0.7%. It also gave a Fbg (9 h) of 273.6 mg/dL, a Hb (9 h) of 13.4 g/dL and a Ht (9 h) of 39.1%. The Lym (9 h) was 76.3%, the MCH (9 h) was 20.7 pg and the MCHC (9 h) was 34.3%. It also gave an MCV (9 h) of 60.5 fL, a Mono (9 h) of 1.9% and a Neu (9 h) of 20.1%. It also gave a PT (9 h) of 13.1 s, a Plat (9 h) of 145.3 x10_4/uL and an RBC (9 h) of 647.4 x10_4/ul. The Ret (9 h) was 7.4%, the WBC (9 h) was 69.4 x10_2/uL and the KIDNEY_L (9 h) was 0.9 g. The KIDNEY_R (9 h) was 0.9 g, the KIDNEY_TOTAL (9 h) was 1.7 g and the LIVER (9 h) was 7.5 g. The A/G (9 h) was 0.8, the ALP (9 h) was 1688.6 IU/L and the ALT (9 h) was 30.6 IU/L. It also gave an AST (9 h) of 66.4 IU/L, a BUN (9 h) of 8.2 mg/dL and a CRE (9 h) of 0.2 mg/dL. The Ca (9 h) was 10.8 mg/dL, the Cl (9 h) was 108 meq/L and the DBIL (9 h) was 0.026 mg/dL. The GLC (9 h) was 163.8 mg/dL, the IP (9 h) was 10.1 mg/dL and the K (9 h) was 4 meq/L. The LDH (9 h) was 48.4 IU/L, the Na (9 h) was 142.8 meq/L and the PL (9 h) was 134.6 mg/dL. The RALB (9 h) was 2.6 g/dL, the TBIL (9 h) was 0.088 mg/dL and the TC (9 h) was 77.4 mg/dL. For the same compound, the TG (9 h) was 66 mg/dL, the TP (9 h) was 5.6 g/dL and the gamma-GTP (9 h) was 1.4 IU/L. For the same compound, the TERMINAL_BW (24 h) was 215.1 g, the APTT (24 h) was 15.4 s and the Bas (24 h) was 0.3%. The Eos (24 h) was 0.7%, the Fbg (24 h) was 256.6 mg/dL and the Hb (24 h) was 13 g/dL. It also gave a Ht (24 h) of 38%, a Lym (24 h) of 82.1% and an MCH (24 h) of 21.3 pg. It also gave an MCHC (24 h) of 34.1%, an MCV (24 h) of 62.3 fL and a Mono (24 h) of 2.3%. For the same compound, the Neu (24 h) was 13.9%, the PT (24 h) was 12 s and the Plat (24 h) was 142.8 x10_4/uL. It also gave an RBC (24 h) of 610.6 x10_4/ul, a Ret (24 h) of 6.9% and a WBC (24 h) of 97.1 x10_2/uL. The KIDNEY_L (24 h) was 0.9 g, the KIDNEY_R (24 h) was 0.9 g and the KIDNEY_TOTAL (24 h) was 1.8 g. The LIVER (24 h) was 9.6 g, the A/G (24 h) was 0.9 and the ALP (24 h) was 1667 IU/L. For the same compound, the ALT (24 h) was 47.2 IU/L, the AST (24 h) was 79 IU/L and the BUN (24 h) was 15 mg/dL. The CRE (24 h) was 0.2 mg/dL, the Ca (24 h) was 11.4 mg/dL and the Cl (24 h) was 106.4 meq/L. The DBIL (24 h) was 0.028 mg/dL, the GLC (24 h) was 166.4 mg/dL and the IP (24 h) was 7.8 mg/dL. For the same compound, the K (24 h) was 4.2 meq/L, the LDH (24 h) was 63 IU/L and the Na (24 h) was 143.2 meq/L. It also gave a PL (24 h) of 135.2 mg/dL, an RALB (24 h) of 2.7 g/dL and a TBIL (24 h) of 0.078 mg/dL. It also gave a TC (24 h) of 78.2 mg/dL, a TG (24 h) of 110.2 mg/dL and a TP (24 h) of 5.7 g/dL. The gamma-GTP (24 h) was 1 IU/L.
